What was measured:
[1] = molecular target: T1, hEP2/Gqs5 (Homo sapiens, UniProt P43116); assay: FLIPR calcium signal, EP2; type: cell-based; details: HEK-293(EBNA) cells
T1 construct: expressed in transfected cells; host or cells: HEK-293(EBNA)
Method: (§1) HEK-293(EBNA) cells, stably expressing one type or subtype of recombinant human prostaglandin receptors (prostaglandin receptors expressed: hDP/Gqs5; hEP1; hEP2/Gqs5; hEP3A/Gqi5; hEP4/Gqs5; hFP; hIP; hTP), were cultured in 100 mm culture dishes in high-glucose DMEM medium containing 10% fetal bovine serum, 2 mM l-glutamine, 250 μg/ml geneticin (G418) and 200 μg/ml hygromycin B as selection markers, and 100 units/ml penicillin G, 100 μg/ml streptomycin and 0.25 μg/ml amphotericin B.
Cells were seeded at a density of 5×10^4 cells per well in Biocoat® Poly-D-lysine-coated black-wall, clear-bottom 96-well plates (Becton-Dickinson) and allowed to attach overnight in an incubator at 37° C. Cells were then washed two times with HBSS-HEPES buffer (Hanks Balanced Salt Solution without bicarbonate and phenol red, 20 mM HEPES, pH 7.4) using a Denley Cellwash plate washer (Labsystems). After 45 minutes of dye-loading in the dark, using the calcium-sensitive dye Fluo-4 […] at a final concentration of 2 μM, plates were washed four times with HBSS-HEPES buffer to remove excess dye leaving 100 μl in each well. Plates were re-equilibrated to 37° C. for a few minutes.
Cells were excited with an Argon laser at 488 nm, and emission was measured through a 510-570 nm bandwidth emission filter (FLIPR™, Molecular Devices, Sunnyvale, Calif.). Drug solution was added in a 50 μl volume to each well to give the desired final concentration. The peak increase in fluorescence intensity was recorded for each well. On each plate, four wells each served as negative (HBSS-HEPES buffer) and positive controls (standard agonists: BW245C (hDP); PGE2 (hEP1; hEP2/Gqs5; hEP3A/Gqi5; hEP4/Gqs5); PGF2α (hFP); carbacyclin (hIP); U-46619 (hTP), depending on receptor). The peak fluorescence change in each drug-containing well was then expressed relative to the controls.
Compounds were tested in a high-throughput (HTS) or concentration-response (CoRe) format. In the HTS format, forty-four compounds per plate were examined in duplicates at a concentration of 10^−5 M. To generate concentration-response curves, four compounds per plate were tested in duplicates in a concentration range between 10^−5 and 10^−11 M. The duplicate values were averaged. In either, HTS or CoRe format each compound was tested on at least 3 separate plates using cells from different passages to give an n≧3.

[2] = molecular target: T2, hEP3A/Gqi5 (Homo sapiens, UniProt P43115); assay: FLIPR calcium signal, hEP3A; type: cell-based; details: read-out: Other Receptors (EC50 in nM) hEP3A
T2 construct: expressed in transfected cells; host or cells: HEK-293(EBNA)
T2 sequence (P43115 1-390): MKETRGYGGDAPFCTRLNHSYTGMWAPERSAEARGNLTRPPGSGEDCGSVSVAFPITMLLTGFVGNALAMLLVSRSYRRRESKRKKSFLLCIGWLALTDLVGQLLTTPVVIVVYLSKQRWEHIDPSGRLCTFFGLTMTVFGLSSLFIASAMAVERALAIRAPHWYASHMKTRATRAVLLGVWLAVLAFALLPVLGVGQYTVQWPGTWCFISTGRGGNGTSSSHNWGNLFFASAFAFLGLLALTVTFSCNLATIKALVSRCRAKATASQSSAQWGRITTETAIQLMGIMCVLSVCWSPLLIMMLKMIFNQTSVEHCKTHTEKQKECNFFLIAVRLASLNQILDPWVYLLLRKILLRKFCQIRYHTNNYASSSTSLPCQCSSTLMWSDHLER
Method: as §1
Cells were seeded at a density of 5×10^4 cells per well in Biocoat® Poly-D-lysine-coated black-wall, clear-bottom 96-well plates (Becton-Dickinson) and allowed to attach overnight in an incubator at 37° C. Cells were then washed two times with HBSS-HEPES buffer (Hanks Balanced Salt Solution without bicarbonate and phenol red, 20 mM HEPES, pH 7.4) using a Denley Cellwash plate washer (Labsystems). […]
Cells were excited with an Argon laser at 488 nm, and emission was measured through a 510-570 nm bandwidth emission filter (FLIPR™, Molecular Devices, Sunnyvale, Calif.). […] The peak increase in fluorescence intensity was recorded for each well. […] The peak fluorescence change in each drug-containing well was then expressed relative to the controls. […]

[3] = molecular target: EP2 (Homo sapiens, UniProt P43116); assay: cAMP assay, EP2; type: cell-based; parameters: expressed in transfected cells; host or cells: HEK-EBNA; details: HEK-EBNA cells expressing EP2
Method: A 384-well drug plate was prepared to contain 6 test compounds, PGE2 and cAMP in 16 serial dilutions in triplicate, using a Biomek station. HEK-EBNA cells expressing a target PG receptor subtype (EP2 or EP4) were suspended in a stimulation buffer (HBSS, 0.1% BSA, 0.5 mM IBMX and 5 mM HEPES, pH 7.4) in a density of 10^4 cells/5 μl. The reaction was initiated by mixing 5 μL drug dilutions with 5 μl of HEK-EBNA cells in a well, carried out for 30 min at room temperature, and followed by the addition of 5 μl anti-cAMP acceptor beads in the control buffer with Tween-20 (25 mM NaCl, 0.03% Tween-20, 5 mM HEPES, pH7.4). After 30 min in the dark at room temperature, the mixtures were incubated with 15 μl biotinylated-cAMP/strepavidin donor beads in Lysis/Detection buffer (0.1% BSA, 0.3% Tween-20 and 5 mM HEPES, pH7.4) for 45 min at the room temperature. Fluorescence changes were read using a Fusion-alpha HT microplate reader.

[4] = molecular target: T3, EP4 receptors (Homo sapiens, UniProt P35408); assay: Radioligand binding [3H]PGE2, EP4 Ki; details: [3H]PGE2 competition, HEK-293 cells expressing EP4
T3 construct: expressed in transfected cells; host or cells: HEK-293
Method: HEK-293 cells stably expressing the human or feline FP receptor, or EP1, EP2, or EP4 receptors were washed with TME buffer, scraped from the bottom of the flasks, and homogenized for 30 sec using a Brinkman PT 10/35 polytron. TME buffer was added to achieve a final 40 ml volume in the centrifuge tubes (the composition of TME is 100 mM TRIS base, 20 mM MgCl2, […]; 10N HCl is added to achieve a pH of 7.4).
The cell homogenate was centrifuged at 19000 r.p.m. for 20 min at 4° C. using a Beckman Ti-60 rotor. The resultant pellet was resuspended in TME buffer to give a final 1 mg/ml protein concentration, as determined by Biorad assay. Radioligand binding competition assays vs. [^3H-]17-phenyl PGF2α (5 nM) were performed in a 100 μl volume for 60 min. Binding reactions were started by adding plasma membrane fraction. The reaction was terminated by the addition of 4 ml ice-cold TRIS-HCl buffer and rapid filtration through glass fiber GF/B filters using a Brandel cell harvester. The filters were washed 3 times with ice-cold buffer and oven dried for one hour.
[^3H-] PGE2 (specific activity 180 Ci mmol) was used as the radioligand for EP receptors. [^3H] 17-phenyl PGF2α was employed for FP receptor binding studies. Binding studies employing EP1, EP2, EP4 and FP receptors were performed in duplicate in at least three separate experiments. A 200 μl assay volume was used. Incubations were for 60 min at 25° C. and were terminated by the addition of 4 ml of ice-cold 50 mM TRIS-HCl, followed by rapid filtration through Whatman GF/B filters and three additional 4 ml washes in a cell harvester (Brandel). Competition studies were performed using a final concentration of 5 nM [^3H]-PGE2, or 5 nM [^3H] 17-phenyl PGF2α and non-specific binding determined with 10^−5M of unlabeled PGE2, or 17-phenyl PGF2α, according to receptor subtype studied.

T1 sequence (P43116 whole entry): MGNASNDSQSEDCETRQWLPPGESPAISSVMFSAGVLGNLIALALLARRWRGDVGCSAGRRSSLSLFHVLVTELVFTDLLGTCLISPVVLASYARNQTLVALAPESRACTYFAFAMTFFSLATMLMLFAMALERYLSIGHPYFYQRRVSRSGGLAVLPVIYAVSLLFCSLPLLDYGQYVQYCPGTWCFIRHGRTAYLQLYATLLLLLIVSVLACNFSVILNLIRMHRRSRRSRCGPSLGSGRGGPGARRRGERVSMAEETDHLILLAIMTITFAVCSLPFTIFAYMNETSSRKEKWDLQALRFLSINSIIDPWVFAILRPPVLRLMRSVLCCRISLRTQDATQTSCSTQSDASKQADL
Sequence of EP2 (P43116 whole entry): as above
T3 sequence (P35408 whole entry): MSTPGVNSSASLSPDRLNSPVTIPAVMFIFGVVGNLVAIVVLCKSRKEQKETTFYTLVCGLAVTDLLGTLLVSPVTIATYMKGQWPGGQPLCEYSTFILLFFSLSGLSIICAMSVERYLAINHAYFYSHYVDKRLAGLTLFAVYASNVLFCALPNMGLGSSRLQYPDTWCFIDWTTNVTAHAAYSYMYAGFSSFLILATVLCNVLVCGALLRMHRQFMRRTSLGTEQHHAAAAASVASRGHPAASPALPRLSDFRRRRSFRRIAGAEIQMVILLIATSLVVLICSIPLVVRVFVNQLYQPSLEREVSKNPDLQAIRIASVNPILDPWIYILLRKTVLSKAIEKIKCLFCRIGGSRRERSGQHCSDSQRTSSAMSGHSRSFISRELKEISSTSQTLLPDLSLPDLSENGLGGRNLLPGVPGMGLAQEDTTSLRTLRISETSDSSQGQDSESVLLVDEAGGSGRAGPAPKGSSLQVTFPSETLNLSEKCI

EC50 [1]	EC50 [2]	EC50 [3]	Ki [4]	Structure (SMILES)
10 nM	8540 nM	0.1 nM	2570 nM	O=C(O)c1ccc(CCC[C@@H]2[C@@H](CCc3cc(F)cc(F)c3)[C@H](O)C[C@H]2Cl)s1 [11d, 5-(3-((1R,2R,3R,5R)-5-chloro-2-(3,5-difluorophenethyl)-3-hydroxycyclopentyl)propyl)thiophene-2-carboxylic acid]
501 nM	> 10000 nM	4 nM	> 10000 nM	O=C(O)c1ccc(CCC[C@@H]2[C@@H](CCc3cc(Cl)cc(Cl)c3)[C@@H](O)C[C@H]2Cl)s1 [compound 17, 5-(3-((1R,2R,3S,5R)-5-chloro-2-(3,5-dichlorophenethyl)-3-hydroxycyclopenty)propyl)thiophene-2-carboxylic acid]
